# Entries after “also recorded” stand apart in the source; their conditions may differ. Read-outs that look alike come from different tables or passages of the source.
# Legend:
# Saccharomyces cerevisiae = assay: MIC, two-fold (broth) serial dilution, S. cerevisiae; type: cell-based; conditions: Saccharomyces cerevisiae, read-out: MIC
# Experimental: (§1) Both qualitative and quantitative screens were performed. Qualitative screening was accomplished using the agar well diffusion assay technque while quantitative screening was accomplished by the two-fold (broth) serial dilution method to determine the minimum inhibitory concentration (MIC). Innoculation was accomplished with one loop-full of a 1:10 dilution of the 24-hour-old broth culture, (fungal cultures and M.smegmatis more often required 48 to 72 hours of incubation) of the test organisms in sterile water. Streptomycin sulfate was used as a positive control for antibacterial activity while amphitericin B was used as an antifungal positive control. Organisms utilized in the screens included gram-positive, gram-negative, and acid-fast bacteria as well as different types of fungi. […] An intermediate type activity is seen where R is hydrogen. However, where R is lengthened up to C15 a decrease in activity was noted. Total saturation of the two double bonds in the compounds having a methyl side chain lead, in most cases, to an increase in both antifungal and antibacterial activity.
# [1] = system: erythrocyte (heat-induced hemolysis); assay: erythrocyte membrane stabilization assay (heat-induced erythrocyte hemolysis); type: cell-based; conditions: Erythrocyte; for inhibition at 250 µM: 2.5 × 10^-4 M
# Experimental: The published procedure (Proc. Soc. Exp. Biol. Med. 1967; 125; 837-842 Brow et al) for in vitro assay for antiinflammatory agents based on stabilization of erythrocytes was used. All compounds were prepared for administration by dissolving in physiologic saline or suspending in 2% ethanol in saline and the pH adjusted to 7.4 The concentrations tested in one series are given in Table 8. Aspirin (ASA) and phenylbutazone were used as positive controls for comparison of activity. Tests using this procedure were successfully and repeatedly using either 40% or 20% RBC suspensions.
# Staphylococcus aureus = assay: MIC, two-fold (broth) serial dilution, S. aureus; type: cell-based; conditions: Staphylococcus aureus, read-out: MIC
# Experimental: as §1
# [2] = deaths and adverse effects observed in the rat paw edema test; type: in vivo
# Experimental: (§2) In the Rat Paw Edema Test, the rats utilized were divided into test groups of six to eight animals, weighed and marked so that individual rats could be identified; one hour before testing all rats were given a 700 mg/kg intraperitoneal injection of ethyl urethane in distilled water to render them tractable during testing. A circle was drawn, with a felt-tipped marker, around the hind leg of each rat just above the ankle, and each rat was dosed with a test or control compound by intraperitoneal injection. Negative control groups received the vehicle; while positive control groups received a dose of phenylbutazone (PBZ) as shown in Table II. Test compounds were given at doses of 60, 120, 240 and 480 mg/kg. The positive controls were given at 120 mg/kg and 60 mg/kg. Phenylbutazone was prepared for injection by suspending it in normal saline using Tween 60. The rats were then held in group cages for 30 minutes. The volume of the left hind paw was measured using a mercury displacement pleysmograph. The paw is dipped into the mercury until the mercury touches the line above the ankle. Mercury is then withdrawn until the mercury returns to its original level. The amount of mercury removed is measured in milliliters (ml). The mercury can be measured accurately to 0.01 ml. This left hind paw was then injected with 0.1 ml of a 5% w/v solution of viscous carageenan in normal saline. The injection was given between the metatarsal bones using a 27 gauge needle, and the rats then held in group cages for 3 hours. The volume of the left hind paws was measured again in the pleysmograph. The results were computed in the following manner:
# The eighth rat died within 24 hours of injection.
# Mycobacterium smegmatis = assay: MIC, two-fold (broth) serial dilution, M. smegmatis; type: cell-based; conditions: Mycolicibacterium smegmatis, read-out: MIC
# Experimental: as §1
# Bacillus subtilis = assay: MIC, two-fold (broth) serial dilution, B. subtilis; type: cell-based; conditions: Bacillus subtilis, read-out: MIC
# Experimental: as §1
# [3] = system: Trichophyton mentagrophytes; assay: MIC, two-fold (broth) serial dilution, T. mentagrophytes; type: cell-based; conditions: Trichophyton mentagrophytes, read-out: MIC
# Experimental: as §1
# [4] = system: carrageenan-induced rat paw edema; assay: carrageenan-induced rat paw edema test, intraperitoneal dosing; type: in vivo; design: key to mean difference in volume (MDV): post-injection minus pre-injection mean paw volume
# Experimental: Two methods were used to assess the antiinflammatory activity of the compounds of the invention: the carrageenan-induced rat paw edema test and, the erythrocyte membrane stabilization assay.
# as §2
# (§3) a. A mean is taken for both the pre-injection and post-injection paw volume of each test group.
# (§4) b. The mean difference in volume (MDV) for each test group is computed by subtracting the pre-injection means from the post-injection mean.
# (§5) c. The percent of control is computed for each test [formula] The percent of control is used to compare the efficacy of the various drug treatments.
# (§6) d. The percent increase in paw volume is calculated for each group as: [formula] The percent increase is used to compare the amount of edma observed in one experiment to the amount of edma observed in other experiments.
# The data from the rat paw test were further analyzed using a one-way analysis of varience (ANOVA) and Duncan's New Multiple Range Test. The pre-injection score of each animal was subtracted from his post-injection score and an analysis of the different scores were conducted.
# The procedure described above was followed. […] The vehicle control used was Tween 60, Arlacel and distilled water prepared without CBC(II).
# [5] = system: carrageenan-induced rat paw edema; assay: carrageenan-induced rat paw edema test, oral gavage; type: in vivo; design: key to mean difference in volume (MDV): ml; post-injection minus pre-injection mean paw volume
# Experimental: as §2, with “A circle was drawn, with a felt-tipped marker, around the hind leg of each rat just above the ankle, and each rat was dosed with a test or control compound by intraperitoneal injection.” left out
# as §3, §4, §5, §6
# […] The test was conducted twice, once with nonfasted rats and once with rats that had been fasted during the 24 hour period prior to dosing. The 60 mg/kg phenylbutazone control group was not used in the test with fasted animals. Tween 60 in normal saline was the vehicle control for the non-fasted rats and normal saline was the vehicle control for the fasted rats.
# [6] = Table 8, 1 × 10^-4 M, read-out: inhibition of heat-induced erythrocyte hemolysis
# [7] = Table 4, 60 mg/kg i.p., fasted rats
# [8] = Table 4, 120 mg/kg i.p., fasted rats
# [9] = Table 6, 60 mg/kg oral, non-fasted rats
# [10] = Table 6, 120 mg/kg oral, non-fasted rats
# [11] = Table 7, 120 mg/kg oral, fasted rats, doses approximate
smiles,measurement,setting,value
"CC(C)=CCCC1(C)C=Cc2c(O)cc(C)cc2O1 (centres unmarked) [CBC (II), 2 methyl-2(4'-methyl-pent-3'-enyl)-5-hydroxy-7-metylchromene]",MIC,Saccharomyces cerevisiae; 48 h,6.25 µg/mL
same,MIC,Saccharomyces cerevisiae; 72 h,12.5 µg/mL
same,inhibition at 100 µM,[1]; [6],86%
same,MIC,Staphylococcus aureus; 24 h,3.12 µg/mL
same,MIC,Staphylococcus aureus; 48 h,3.12 µg/mL
same,toxic or adverse effects,[2]; 60 and 120 mg/kg i.p.,No toxic or adverse effects were observed
same,MIC,Mycobacterium smegmatis; 24 h,3.12 µg/mL
same,MIC,Mycobacterium smegmatis; 48 h,6.25 µg/mL
same,MIC,Bacillus subtilis; 24 h,3.12 µg/mL
same,MIC,Bacillus subtilis; 48 h,3.12 µg/mL
same,MIC,[3]; 48 h,6.25 µg/mL
same,MIC,[3]; 72 h,6.25 µg/mL
same,mean difference in volume (MDV),[4]; [7],0.090
same,percent increase in paw volume,[4]; [7],6.742%
same,percent of control,[4]; [7],47.059%
same,mean difference in volume (MDV),[4]; [8],0.070
same,percent increase in paw volume,[4]; [8],4.956%
same,percent of control,[4]; [8],36.601%
same,antiinflammatory activity compared with PBZ in words,[4]; i.p.,slightly less activity than PBZ at the 120 mg/kg dose; also recorded: as active at PBZ at 60 mg/kg
same,antiinflammatory effect in words,[4]; i.p.,active at both 60 mg/kg and 120 mg/kg
"CCCCC1C(=O)N(c2ccccc2)N(c2ccccc2)C1=O [Phenylbutazone, reference compound]",inhibition at 100 µM,[1]; [6],16%
same,inhibition at 20 µM,"[1]; Table 8, 2 × 10^-5 M, read-out: inhibition of heat-induced erythrocyte hemolysis",10%
same,inhibition at 250 µM,"[1]; Table 9 Test 1 (20% RBC), read-out: percent inhibition of heat-induced erythrocyte hemolysis",54%
same,inhibition at 25 µM,"[1]; Table 9 Test 1 (20% RBC), 2.5 × 10^-5 M, read-out: percent inhibition of heat-induced erythrocyte hemolysis",31%
same,inhibition at 250 µM,"[1]; Table 9 Test 2 (40% RBC), read-out: percent inhibition of heat-induced erythrocyte hemolysis",70%
same,inhibition at 20 µM,"[1]; Table 9 Test 3 (20% RBC), 2.0 × 10^-5 M, read-out: percent inhibition of heat-induced erythrocyte hemolysis",10%
same,inhibition at 250 µM,"[1]; Table 9 Test 3 (20% RBC), read-out: percent inhibition of heat-induced erythrocyte hemolysis",49%
same,inhibition at 100 µM,"[1]; read-out: percent inhibition of heat-induced erythrocyte hemolysis, Table 9 Test 3 (20% RBC), 1.0 × 10^-4 M",16%
same,inhibition at 20 µM,"[1]; 2×10^-5 M, read-out: inhibition of heat-induced red cell hemolysis",10%
same,inhibition at 100 µM,"[1]; 10^-4 M, read-out: inhibition of heat-induced red cell hemolysis",16%
same,deaths,"[2]; 240 mg/kg i.p. plus ethyl urethane i.p., listed as PBZ",rapid deaths; also recorded: Seven of the eight animals receiving 240 mg/kg of PBZ died before the test could be completed
same,inhibition at 120 mg/kg,"[5]; Rattus norvegicus, po, Table 5, 120 mg/kg oral, fasted rats, N.S., read-out: inhibition of carrageenan-induced rat paw edema",36%
same,inhibition at 60 mg/kg,"[5]; Rattus norvegicus, po, read-out: inhibition of carrageenan-induced rat paw edema, Table 5, 60 mg/kg oral, nonfasted rats, * P = 0.01",37%
same,inhibition at 120 mg/kg,"[5]; Rattus norvegicus, po, read-out: inhibition of carrageenan-induced rat paw edema, Table 5, 120 mg/kg oral, nonfasted rats",22%
same,mean difference in volume (MDV),[5]; [9],0.489
same,percent increase in paw volume,[5]; [9],50.257%
same,percent of control,[5]; [9],78.200%
same,mean difference in volume (MDV),[5]; [10],0.392
same,percent increase in paw volume,[5]; [10],36.098%
same,percent of control,[5]; [10],62.667%
same,mean difference in volume (MDV),[5]; [11],0.403
same,percent increase in paw volume,[5]; [11],31.051%
same,percent of control,[5]; [11],64.400%
same,antiinflammatory activity compared with PBZ in words,[5]; oral,slightly more effective than CBC at 120 mg/kg in the nonfasted rats
same,inhibition at 60 mg/kg,"[4]; Rattus norvegicus, ip, Table 5, 60 mg/kg i.p., * P = 0.01",52%
same,inhibition at 120 mg/kg,"[4]; Rattus norvegicus, ip, Table 5, 120 mg/kg i.p., * P = 0.01, read-out: inhibition of carrageenan-induced rat paw edema",76%
same,percent increase in paw volume,"[4]; Table 1, 120 mg/kg i.p.",10.316%
same,percent of control,"[4]; Table 1, 120 mg/kg i.p.",22.973%
same,mean difference in volume (MDV),"[4]; Table 1, 120 mg/kg i.p., paw volume measured in ml",0.106
same,group mean difference score,"[4]; Table 3, 120 mg/kg",0.016
same,difference of mean scores versus vehicle control (Duncan's test),"[4]; Table 3, 120 mg/kg, ** p 0.01",0.356
same,difference of mean scores (Duncan's test),"[4]; Table 3, PBZ 120 mg/kg versus CBC 240 mg/kg",0.102
same,difference of mean scores (Duncan's test),"[4]; Table 3, PBZ 120 mg/kg versus CBC 480 mg/kg, * p 0.05",0.149
same,mean difference in volume (MDV),[4]; [7],0.090
same,percent increase in paw volume,[4]; [7],6.742%
same,percent of control,[4]; [7],47.059%
same,mean difference in volume (MDV),[4]; [8],0.046
same,percent increase in paw volume,[4]; [8],3.254%
same,percent of control,[4]; [8],24.183%
